# Laboratory results reported in US8952024B2, “Herbicidal pyrimidone derivatives” (E I du Pont de Nemours and Company, priority 2009, dated 2015).
# Legend:
# Format in all cases: in vivo
# [1] = tested on: cocklebur (Xanthium strumarium); assay: Test B pre-/postemergence plant response; details: for Cocklebur plant response rating (0 to 100 scale): 62 g ai/ha, 0 is no effect, 13 to 15 days
# Method in brief: (§1)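 Each species received compound formulated in non-phytotoxic solvent with surfactant, either at planting into a loam and sand blend or as a foliar spray once plants reached 2 to 18 cm in peat-based medium. Plants stayed in the greenhouse 13 to 15 days before visual evaluation against controls, scored 0 (no effect) to 100 (complete control).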
# [2] = tested on: green foxtail (Setaria viridis); assay: Test B pre-/postemergence plant response; details: for Foxtail, Green plant response rating (0 to 100 scale): 62 g ai/ha, 0 is no effect, 13 to 15 days
# Method in brief: as §1
# [3] = tested on: wheat (Triticum aestivum); assay: Test B pre-/postemergence plant response; details: for Wheat plant response rating (0 to 100 scale): 62 g ai/ha, 0 is no effect, 13 to 15 days
# Method in brief: as §1
# [4] = tested on: morningglory (Ipomoea coccinea); assay: Test B pre-/postemergence plant response; details: for Morningglory plant response rating (0 to 100 scale): 62 g ai/ha, 0 is no effect, 13 to 15 days
# Method in brief: as §1
# [5] = tested on: goosegrass (Eleusine indica); assay: Test B pre-/postemergence plant response; details: for Goosegrass plant response rating (0 to 100 scale): 62 g ai/ha, 0 is no effect, 13 to 15 days
# Method in brief: as §1
# [6] = tested on: giant foxtail (Setaria faberii); assay: Test B pre-/postemergence plant response; details: for Foxtail, Giant plant response rating (0 to 100 scale): 62 g ai/ha, 0 is no effect, 13 to 15 days
# Method in brief: as §1
# [7] = tested on: downy bromegrass (Bromus tectorum); assay: Test B pre-/postemergence plant response; details: for Bromegrass, Downy plant response rating (0 to 100 scale): 62 g ai/ha, 0 is no effect, 13 to 15 days
# Method in brief: as §1
# kochia (Kochia scoparia) = assay: Test B pre-/postemergence plant response; details: for Kochia plant response rating (0 to 100 scale): 62 g ai/ha, 0 is no effect, 13 to 15 days
# Method in brief: as §1
# [8] = tested on: pigweed (Amaranthus retroflexus); assay: Test B pre-/postemergence plant response; details: for Pigweed plant response rating (0 to 100 scale): 62 g ai/ha, 0 is no effect, 13 to 15 days
# Method in brief: as §1
# [9] = tested on: morningglory (Ipomoea spp.); assay: Test A pre-/postemergence plant response
# Method in brief: (§2)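 Injury was scored visually after roughly ten days against untreated controls, 0 = no effect, 100 = complete control. Test chemicals in a surfactant-containing non-phytotoxic solvent were sprayed either onto soil preemergence or onto one- to two-leaf, 2–10 cm plants postemergence.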
# [10] = tested on: velvetleaf (Abutilon theophrasti); assay: Test A pre-/postemergence plant response
# Method in brief: as §2
# [11] = tested on: wheat (Triticum aestivum); assay: Test A pre-/postemergence plant response
# Method in brief: as §2
# [12] = tested on: large crabgrass (Digitaria sanguinalis); assay: Test A pre-/postemergence plant response
# Method in brief: as §2
# [13] = 31 g ai/ha, postemergence, scale 0 to 100, 0 is no effect, 100 is complete control
# [14] = postemergence, 100 is complete control
# [15] = Postemergence, 125 g ai/ha, visual rating after 13 to 15 days, scale 0 (no effect) to 100 (complete control)
# [16] = Postemergence, 250 g ai/ha, scale 0 to 100 (0 no effect, 100 complete control)
# [17] = Postemergence, 125 g ai/ha, 0 to 100 scale where 0 is no effect and 100 is complete control
# [18] = Postemergence, 500 g ai/ha, 0 to 100 scale, 0 = no effect, 100 = complete control, approx. ten days
# [19] = Preemergence, 125 g ai/ha, 0 to 100 scale, 0 = no effect, 100 = complete control
# [20] = Preemergence, 500 g ai/ha, visual injury, 0 to 100 scale (0 no effect, 100 complete control), approx. ten days
smiles,measurement,setting,value
CCCn1c(-c2ccsc2)ncc(C(=O)C2=C(O)CCCC2=O)c1=O [Compound 93],"Plant response rating, Cocklebur",[1]; [13],70
same,Cocklebur plant response rating (0 to 100 scale),[1]; [14],90
same,"Plant response rating, Cocklebur",[1]; [15],95
same,"Plant response rating, Cocklebur",[1]; [16],98
same,"Plant response rating, Foxtail, Green",[2]; [13],50
same,"Foxtail, Green plant response rating (0 to 100 scale)",[2]; [14],60
same,"Plant response rating, Foxtail, Green",[2]; [16],90
same,"Plant response rating, Wheat",[3]; [13],0
same,Wheat plant response rating (0 to 100 scale),[3]; [14],0
same,"Plant response rating, Wheat",[3]; [16],5
same,"Plant response rating, Morningglory",[4]; [13],70
same,Morningglory plant response rating (0 to 100 scale),[4]; [14],80
same,"Plant response rating, Morningglory",[4]; [16],100
same,"Plant response rating, Goosegrass",[5]; [13],60
same,Goosegrass plant response rating (0 to 100 scale),[5]; [14],65
same,"Plant response rating, Goosegrass",[5]; [16],75
same,"Plant response rating, Foxtail, Giant",[6]; [13],70
same,"Foxtail, Giant plant response rating (0 to 100 scale)",[6]; [14],80
same,"Plant response rating, Foxtail, Giant",[6]; [16],85
same,"Plant response rating, Bromegrass, Downy",[7]; [13],0
same,"Bromegrass, Downy plant response rating (0 to 100 scale)",[7]; [14],0
same,"Plant response rating, Bromegrass, Downy",[7]; [15],0
same,"Plant response rating, Bromegrass, Downy",[7]; [16],0
same,"Plant response rating, Kochia",kochia (Kochia scoparia); [13],65
same,Kochia plant response rating (0 to 100 scale),kochia (Kochia scoparia); [14],85
same,"Plant response rating, Kochia",kochia (Kochia scoparia); [16],98
same,"Plant response rating, Pigweed",[8]; [13],90
same,Pigweed plant response rating (0 to 100 scale),[8]; [14],95
same,"Plant response rating, Pigweed",[8]; [16],100
same,"Plant response rating, Morningglory",[9]; [17],100
same,"Plant response rating, Morningglory",[9]; [18],100
same,"Plant response rating, Morningglory",[9]; [19],80
same,"Plant response rating, Morningglory",[9]; [20],90
same,"Plant response rating, Velvetleaf",[10]; [17],100
same,"Plant response rating, Velvetleaf",[10]; [18],100
same,"Plant response rating, Velvetleaf",[10]; [19],90
same,"Plant response rating, Velvetleaf",[10]; [20],100
same,"Plant response rating, Wheat",[11]; [17],0
same,"Plant response rating, Wheat",[11]; [18],0
same,"Plant response rating, Wheat",[11]; [19],0
same,"Plant response rating, Wheat",[11]; [20],0
same,"Plant response rating, Crabgrass, Large",[12]; [17],90
same,"Plant response rating, Crabgrass, Large",[12]; [18],100
same,"Plant response rating, Crabgrass, Large",[12]; [19],90
same,"Plant response rating, Crabgrass, Large",[12]; [20],100
CCCCCCn1c(-c2ccccc2)ncc(C(=O)C2=C(O)CCCC2=O)c1=O [Compound 94],"Plant response rating, Cocklebur",[1]; [13],45
same,Cocklebur plant response rating (0 to 100 scale),[1]; [14],45
same,"Plant response rating, Cocklebur",[1]; [15],60
same,"Plant response rating, Cocklebur",[1]; [16],90
same,"Plant response rating, Foxtail, Green",[2]; [13],10
same,"Foxtail, Green plant response rating (0 to 100 scale)",[2]; [14],60
same,"Plant response rating, Foxtail, Green",[2]; [16],80
same,"Plant response rating, Wheat",[3]; [13],0
same,Wheat plant response rating (0 to 100 scale),[3]; [14],0
same,"Plant response rating, Wheat",[3]; [16],5
same,"Plant response rating, Morningglory",[4]; [13],55
same,Morningglory plant response rating (0 to 100 scale),[4]; [14],75
same,"Plant response rating, Morningglory",[4]; [16],100
same,"Plant response rating, Goosegrass",[5]; [13],45
same,Goosegrass plant response rating (0 to 100 scale),[5]; [14],70
same,"Plant response rating, Goosegrass",[5]; [16],85
same,"Plant response rating, Foxtail, Giant",[6]; [13],65
same,"Foxtail, Giant plant response rating (0 to 100 scale)",[6]; [14],75
same,"Plant response rating, Foxtail, Giant",[6]; [16],98
same,"Plant response rating, Bromegrass, Downy",[7]; [13],0
same,"Bromegrass, Downy plant response rating (0 to 100 scale)",[7]; [14],0
same,"Plant response rating, Bromegrass, Downy",[7]; [15],0
same,"Plant response rating, Bromegrass, Downy",[7]; [16],0
same,Kochia plant response rating (0 to 100 scale),kochia (Kochia scoparia); [14],55
same,"Plant response rating, Kochia",kochia (Kochia scoparia); [16],90
same,"Plant response rating, Pigweed",[8]; [13],100
same,Pigweed plant response rating (0 to 100 scale),[8]; [14],100
same,"Plant response rating, Pigweed",[8]; [16],100
same,"Plant response rating, Morningglory",[9]; [17],100
same,"Plant response rating, Morningglory",[9]; [18],100
same,"Plant response rating, Morningglory",[9]; [19],10
same,"Plant response rating, Morningglory",[9]; [20],40
same,"Plant response rating, Velvetleaf",[10]; [17],100
same,"Plant response rating, Velvetleaf",[10]; [18],100
same,"Plant response rating, Velvetleaf",[10]; [19],40
same,"Plant response rating, Velvetleaf",[10]; [20],70
same,"Plant response rating, Wheat",[11]; [17],0
same,"Plant response rating, Wheat",[11]; [18],0
same,"Plant response rating, Wheat",[11]; [19],0
same,"Plant response rating, Wheat",[11]; [20],0
same,"Plant response rating, Crabgrass, Large",[12]; [17],80
same,"Plant response rating, Crabgrass, Large",[12]; [18],90
same,"Plant response rating, Crabgrass, Large",[12]; [19],30
same,"Plant response rating, Crabgrass, Large",[12]; [20],90
CCOCCn1c(-c2ccccc2)ncc(C(=O)C2=C(O)CCCC2=O)c1=O [Compound 96],"Plant response rating, Cocklebur",[1]; [13],75
same,Cocklebur plant response rating (0 to 100 scale),[1]; [14],95
same,"Plant response rating, Cocklebur",[1]; [15],98
same,"Plant response rating, Cocklebur",[1]; [16],100
same,"Plant response rating, Foxtail, Green",[2]; [13],50
same,"Foxtail, Green plant response rating (0 to 100 scale)",[2]; [14],65
same,"Plant response rating, Foxtail, Green",[2]; [16],85
same,"Plant response rating, Wheat",[3]; [13],0
same,Wheat plant response rating (0 to 100 scale),[3]; [14],5
same,"Plant response rating, Wheat",[3]; [16],15
same,"Plant response rating, Morningglory",[4]; [13],65
same,Morningglory plant response rating (0 to 100 scale),[4]; [14],95
same,"Plant response rating, Morningglory",[4]; [16],100
same,"Plant response rating, Goosegrass",[5]; [13],70
same,Goosegrass plant response rating (0 to 100 scale),[5]; [14],70
same,"Plant response rating, Goosegrass",[5]; [16],85
same,"Plant response rating, Foxtail, Giant",[6]; [13],65
same,"Foxtail, Giant plant response rating (0 to 100 scale)",[6]; [14],70
same,"Plant response rating, Foxtail, Giant",[6]; [16],85
same,"Plant response rating, Bromegrass, Downy",[7]; [13],0
same,"Bromegrass, Downy plant response rating (0 to 100 scale)",[7]; [14],0
same,"Plant response rating, Bromegrass, Downy",[7]; [15],5
same,"Plant response rating, Bromegrass, Downy",[7]; [16],10
same,"Plant response rating, Kochia",kochia (Kochia scoparia); [13],65
same,Kochia plant response rating (0 to 100 scale),kochia (Kochia scoparia); [14],85
same,"Plant response rating, Kochia",kochia (Kochia scoparia); [16],100
same,"Plant response rating, Pigweed",[8]; [13],90
same,Pigweed plant response rating (0 to 100 scale),[8]; [14],95
same,"Plant response rating, Pigweed",[8]; [16],100
same,"Plant response rating, Morningglory",[9]; [17],100
same,"Plant response rating, Morningglory",[9]; [18],100
same,"Plant response rating, Morningglory",[9]; [19],80
same,"Plant response rating, Morningglory",[9]; [20],80
same,"Plant response rating, Velvetleaf",[10]; [17],100
same,"Plant response rating, Velvetleaf",[10]; [18],100
same,"Plant response rating, Velvetleaf",[10]; [19],100
same,"Plant response rating, Velvetleaf",[10]; [20],100
same,"Plant response rating, Wheat",[11]; [17],0
same,"Plant response rating, Wheat",[11]; [18],20
same,"Plant response rating, Wheat",[11]; [19],0
same,"Plant response rating, Wheat",[11]; [20],0
same,"Plant response rating, Crabgrass, Large",[12]; [17],90
same,"Plant response rating, Crabgrass, Large",[12]; [18],100
same,"Plant response rating, Crabgrass, Large",[12]; [19],100
same,"Plant response rating, Crabgrass, Large",[12]; [20],100
